Experiments:
Type in all cases: physicochemical
[1] = Miscibility with solvents, visual evaluation at 5 wt %; set-up: key: ⊚: dissolves at room temperature; ◯: dissolves when heated for 5 minutes at 40° C.; Δ: dissolves under heating, but cooling precipitates crystals; X: does not dissolve; details: complex added at 5 wt %
Procedure: (§1) The miscibility of the rare earth complex with various media was evaluated as follows.
1) Miscibility with Solvents

[2] = Miscibility with a polymer matrix, visual evaluation; set-up: key to Miscibility, PMMA: ⊚: dissolves up to 30 wt %; ◯: dissolves up to 5 wt %; Δ: disperses up to 5 wt %, but there is turbidity; X: repelled at the polymer surface
Procedure: as §1
2) Miscibility with a Polymer Matrix
The rare earth complex serving as the sample was added in the concentrations listed with the evaluation criteria below relative to various media, and the miscibility was visually evaluated according to the following criteria. • ⊚: dissolves up to 30 wt % • ◯: dissolves up to 5 wt % • Δ: disperses up to 5 wt %, but there is turbidity • X: repelled at the polymer surface

[3] = Number of moles of bound water per mole of complex (TG-DTA); details: for Bound water (number of moles of bound water per mole of complex): Table 1, dried samples for the ternary complexes
Procedure: The number of moles of bound water per mole of complex was measured using a TG-DTA 2000 from MAC Science.
A 20 g quantity of Eu(PMS)3 was added to 100 mL of isopropanol, then 43 g ([…] the molar amount of the Eu(PMS)3) of triphenylphosphine oxide (hereinafter referred to as TPPO) was added, and the system was refluxed for 3 hours, and then gradually cooled. The resulting white powder was filtered off. The white powder thus obtained was washed with hot n-hexane, and recrystallized with water-methanol to obtain 44 g of Eu(PMS)3(TPPO)8 in the form of white acicular crystals (yield: 85%). The TG-DTA was measured for these crystals, and it was found from the weight reduction at 100° C. that the number of moles of bound water per mole of complex was 2.93. The IR, NMR, UV absorption characteristics, and elemental analysis results for the obtained Eu(PMS)3(TPPO)8(H2O)2.93 are given below.
Eu(PMS)3(TPPO)8(H2O)2.93 obtained by the above synthesis method was dried in vacuo for 3 hours at 140° C. and a reduced pressure of […]. TG-DTA measurement for the resulting white powder was carried out to obtain a weight reduction at 100° C. It was found from the obtained value that the number of moles of bound water per mole of complex was 0.18.

[4] = Luminescence quantum yield and luminescence intensity in solution
Procedure: (§2) The intensity of luminescence and the luminescence quantum yield, the quotient of dividing the number of photons emitted from a sample by the number of photons absorbed into the sample, were measured with an SS-25 from JASCO Corporation.
The luminescence quantum yield of an acetonitrile solution of the Eu(PMS)3(TPPO)8 obtained in Example 1 (europium ion concentration: 0.05 mol/L) was measured (excitation wavelength: 465 nm, maximum luminescence wavelength: 612 nm, luminescence wavelength used in measurement: 612 nm).
The solutions prepared in Examples 12 to 14 and Comparative Examples 7 to 9 and Comparative Example B were measured for luminescence intensity at the respective maximum luminescence wavelengths.
The relative luminescence intensity of the solutions used in Examples 12 to 14 and Comparative Example B: (luminescence intensity in each of Examples 12 to 14)/(luminescence intensity in Comparative Example 7) was calculated, letting 1 be the luminescence intensity in Comparative Example 7 (solution of a rare earth complex in which the ligand Z was not coordinated).
Similarly, the relative luminescence intensity in Comparative Example 9: (luminescence intensity in Comparative Example 9)/(luminescence intensity in Comparative Example 8) was calculated, letting 1 be the luminescence intensity in Comparative Example 8 (solution of a known β-diketone-type of rare earth complex in which the ligand Z was not coordinated). The relative luminescence intensity of the solution used in Comparative Example B was 1.6 times.
The luminescence quantum yield of an acetone-d6 solution of the Nd(PMS)3(TPPO)8 obtained in Example 2 (neodymium ion concentration: 0.05 mol/L) was measured (excitation wavelength: 585 nm, maximum luminescence wavelength: 1064 nm, luminescence wavelength used in measurement: 1064 nm).
The solutions prepared in Examples 15 and 16 and Comparative Examples 10 were measured for luminescence intensity at the respective maximum luminescence wavelengths. The relative luminescence intensity in Examples 15 and 16: (luminescence intensity in each of Examples 15 and 16)/(luminescence intensity in Comparative Example 10) was calculated, letting 1 be the luminescence intensity in Comparative Example 10 (rare earth complex in which the ligand Z was not coordinated).

[5] = Luminescence quantum yield and luminescence intensity in PMMA polymer matrix composition; details: PMMA rod; for Luminescence quantum yield: rare earth ion 0.7 wt %, excitation 585 nm, luminescence 1064 nm
Procedure: as §2
A 1 mL quantity of refined anhydrous methyl methacrylate (MMA), 0.5 mg of AIBN, and 148 mg (0.7 wt %) as the rare earth ion concentration) of the Eu (PMS)3 (TPPO)8 obtained in Example 1 were mixed, the mixture was transferred to a Pyrex tube, and the inside of the tube was deaerated and then sealed. By reacting for 5 hours at 60° C., the polymerization of MMA was carried out. The resulting PMMA containing Eu(PMS)3 (TPPO)8 was taken out of the Pyrex tube, and a rod-shaped polymer matrix composition was obtained.
The polymer matrix compositions prepared in Examples 17 to 19 and Comparative Example 11 were measured for luminescence intensity at the respective maximum luminescence wavelengths. The relative luminescence intensity in Examples 17 to 19: (luminescence intensity in each of Examples 17 to 19)/(luminescence intensity in Comparative Example 11) was calculated, letting 1 be the luminescence intensity in Comparative Example 11 (rare earth complex in which the ligand Z was not coordinated).
A rod-shaped polymer matrix composition containing […] was obtained in the same manner as in Example 17, except that 148 mg (rare earth ion concentration: 0.7 wt %) of the Nd(PMS)3 (TPPO)8 obtained in Example 2 was used instead of Eu(PMS)3 (TPPO)8.
The polymer matrix compositions prepared in Examples 20 and 21 and Comparative Example 12 were measured for luminescence intensity at the respective maximum luminescence wavelengths. The relative luminescence intensity in Examples 20 and 21: (luminescence intensity in each of Examples 20 and 21)/(luminescence intensity in Comparative Example 12) was calculated, letting 1 be the luminescence intensity in Comparative Example 12 (rare earth complex in which the ligand Z was not coordinated).

[6] = Mechanoluminescence of polycarbonate film hit with a metal rod; details: polycarbonate film about 6 μm thick, visual
Procedure: The rare earth ternary complex of the present invention can be used as a mechanoluminescence material. The term mechanoluminescence as used here refers to a phenomenon whereby physical force (such as pressure, vibration energy or the like) imparted to the rare earth ternary complex is converted into optical energy, causing the complex to emit light.
A 50 mg quantity of the Eu(PMS)3(Phen)m obtained in Example 8 and 450 mg of polycarbonate were dissolved in 3 mL of methylene chloride and then uniformly stirred to obtain a polymer solution. This polymer solution was then cast onto a glass plate, after which it was dried in vacuo overnight to remove the solvent, forming a polycarbonate film containing Eu(PMS)3(Phen)m, which is about 6 μm thick, on the glass plate.
A polycarbonate film containing Eu(PMS)3, which is about 6 μm thick, was formed on a glass plate in the same manner as in Example 22, except that 42 mg of the Eu(PMS)3 prepared in Producing Example 1 was used instead of Eu(PMS)3 (Phen) m.

[7] = after drying in vacuo at 140° C.
[8] = before drying (crystals as obtained), weight reduction at 100° C.
[9] = acetone-d6 solution, Nd 0.05 mol/L, relative to Nd(PMS)3 (Comparative Example 10) = 1
[10] = acetone-d6 solution, neodymium ion 0.05 mol/L, excitation 585 nm, luminescence 1064 nm
[11] = Nd 0.7 wt %, relative to Nd(PMS)3 (Comparative Example 12) = 1

SMILES | Miscibility, Acetone [1] | Miscibility, Chloroform [1] | Miscibility, Toluene [1] | Miscibility, Water [1] | Miscibility, Epoxy resin [2] | Miscibility, Nafion [2] | Miscibility, PMMA [2] | Bound water (number of moles of bound water per mole of complex) [3] | Number of moles of bound water per mole of complex [3, 7] | Number of moles of bound water per mole of complex [3, 8] | Relative luminescence intensity ([4]; acetonitrile solution, Eu 0.05 mol/L, relative to Eu(PMS)3 (Comparative Example 7) = 1) | Luminescence quantum yield ([4]; acetonitrile solution, europium ion 0.05 mol/L, excitation 465 nm, luminescence 612 nm) | Relative luminescence intensity ([5]; Eu 0.7 wt %, relative to Eu(PMS)3 (Comparative Example 11) = 1) | Light emission when film is hit with a metal rod (mechanoluminescence) [6] | Relative luminescence intensity [4, 9] | Luminescence quantum yield [4, 10] | Relative luminescence intensity [5, 11] | Luminescence quantum yield [5]
O=S(=O)([N-]S(=O)(=O)C(F)(F)F)C(F)(F)F.O=S(=O)([N-]S(=O)(=O)C(F)(F)F)C(F)(F)F.O=S(=O)([N-]S(=O)(=O)C(F)(F)F)C(F)(F)F.[Eu+3].c1cnc2c(c1)ccc1cccnc12.c1cnc2c(c1)ccc1cccnc12.c1cnc2c(c1)ccc1cccnc12.c1cnc2c(c1)ccc1cccnc12 [Eu(PMS)3(Phen)m] | ⊚ | Δ | Δ | X | ◯ (dissolves up to 5 wt %) | ◯ (dissolves up to 5 wt %) | ◯ (dissolves up to 5 wt %) | 0.00 | water had been completely removed | 3.06 | 49.5 | 5.1% | 5566 | emits red light | – | – | – | –
O=S(=O)([N-]S(=O)(=O)C(F)(F)F)C(F)(F)F.O=S(=O)([N-]S(=O)(=O)C(F)(F)F)C(F)(F)F.O=S(=O)([N-]S(=O)(=O)C(F)(F)F)C(F)(F)F.O=S(c1ccccc1)c1ccccc1.O=S(c1ccccc1)c1ccccc1.O=S(c1ccccc1)c1ccccc1.O=S(c1ccccc1)c1ccccc1.O=S(c1ccccc1)c1ccccc1.O=S(c1ccccc1)c1ccccc1.O=S(c1ccccc1)c1ccccc1.O=S(c1ccccc1)c1ccccc1.[Nd+3] [Nd(PMS)3(DPSO)8] | ⊚ | ◯ | ◯ | X | ◯ (dissolves up to 5 wt %) | ◯ (dissolves up to 5 wt %) | ◯ (dissolves up to 5 wt %) | 0.00 | – | – | – | – | – | – | 1.6 | 1.3% | 90 | 0.9%
O=P(c1ccccc1)(c1ccccc1)c1ccccc1.O=P(c1ccccc1)(c1ccccc1)c1ccccc1.O=P(c1ccccc1)(c1ccccc1)c1ccccc1.O=P(c1ccccc1)(c1ccccc1)c1ccccc1.O=P(c1ccccc1)(c1ccccc1)c1ccccc1.O=P(c1ccccc1)(c1ccccc1)c1ccccc1.O=P(c1ccccc1)(c1ccccc1)c1ccccc1.O=P(c1ccccc1)(c1ccccc1)c1ccccc1.O=S(=O)([N-]S(=O)(=O)C(F)(F)F)C(F)(F)F.O=S(=O)([N-]S(=O)(=O)C(F)(F)F)C(F)(F)F.O=S(=O)([N-]S(=O)(=O)C(F)(F)F)C(F)(F)F.[Nd+3] [Nd(PMS)3(TPPO)8] | ⊚ | ⊚ | ◯ | X | ◯ (dissolves up to 5 wt %) | ◯ (dissolves up to 5 wt %) | ◯ (dissolves up to 5 wt %) | 0.24 | 0.24 | 3.41 | – | – | – | – | 1.4 | 1.1% | 80 | 0.8%
O=S(=O)([N-]S(=O)(=O)C(F)(F)F)C(F)(F)F.O=S(=O)([N-]S(=O)(=O)C(F)(F)F)C(F)(F)F.O=S(=O)([N-]S(=O)(=O)C(F)(F)F)C(F)(F)F.[Nd+3] [Nd(PMS)3, reference compound] | ⊚ | X | X | ⊚ | Δ (disperses up to 5 wt %, but there is turbidity) | Δ (disperses up to 5 wt %, but there is turbidity) | X | 2.32 | – | – | – | – | – | – | 1.0 | 0.8% | 1.0 | <0.1%

Reference: patent US20050261264A1, “Rare-earth ternary complex” (priority 2000, published 2005)
